Experimental data as given in ChEMBL document CHEMBL5584304, “Unlocking the Potential of Glutinol: Structural Diversification and Antifungal Activity against Phytopathogenic Fusarium Strains” (2024).

Columns and labels:
Assay type in all cases: functional
Conditions in all cases: time 24-48 hrs
[1] = test system: Fusarium solani; test: Antifungal activity against Fusarium solani measured after 24 to 48 hrs by turbidimetry
[2] = test system: Fusarium tucumaniae; test: Antifungal activity against Fusarium tucumaniae measured after 24 to 48 hrs by turbidimetry
[3] = test system: Fusarium graminearum; test: Antifungal activity against Fusarium graminearum measured after 24 to 48 hrs by turbidimetry

| Compound | MIC [1] | MIC [2] | MIC [3] |
| --- | --- | --- | --- |
| CC1(C)CC[C@]2(C)CC[C@]3(C)[C@H]4C=CC5=C(C=CC(=O)C5(C)C)[C@]4(C)CC[C@@]3(C)[C@@H]2C1 | > 50 µg/mL | 119 µM | > 50 µg/mL |
| N#Cc1c[nH]cc1-c1cccc2c1OC(F)(F)O2 [FLUDIOXONIL] | 12.6 µM | 17.8 µM | 17.8 µM |
| COC(=O)N(OC)c1ccccc1COc1ccn(-c2ccc(Cl)cc2)n1 [PYRACLOSTROBIN] | 1.42 µM | 1.01 µM | 1.01 µM |
| CC1(C)CC[C@]2(C)CC[C@]3(C)[C@H]4CC=C5[C@@H](Cc6cnoc6C5(C)C)[C@]4(C)CC[C@@]3(C)[C@@H]2C1 | 55.8 µM | 55.8 µM | > 50 µg/mL |
| CC1(C)CC[C@]2(C)CC[C@]3(C)[C@H]4CC=C5C(=CC6=NC(N)=N[C@]6(O)C5(C)C)[C@]4(C)CC[C@@]3(C)[C@@H]2C1 | > 50 µg/mL | 108 µM | > 50 µg/mL |
| CC1(C)CC[C@]2(C)CC[C@]3(C)[C@H]4CC=C5[C@@H](CC[C@H](O)C5(C)C)[C@]4(C)CC[C@@]3(C)[C@@H]2C1 [GLUTINOL] | > 50 µg/mL | 117 µM | > 50 µg/mL |
| C=C(C)C1=CC[C@H]2[C@@](C)(CC[C@@]3(C)[C@@H]4CC(C)(C)CC[C@]4(C)CC[C@]23C)[C@@H]1CCC#N | 59.2 µM | 59.2 µM | > 50 µg/mL |
| CC1(C)CC[C@]2(C)CC[C@]3(C)[C@H]4CC=C5[C@@H](CC(C=O)=C(O)C5(C)C)[C@]4(C)CC[C@@]3(C)[C@@H]2C1 | 55.2 µM | 110 µM | 110 µM |
| CC1(C)CC[C@]2(C)CC[C@]3(C)[C@H]4CC=C5[C@@H](Cc6sc(N)nc6C5(C)C)[C@]4(C)CC[C@@]3(C)[C@@H]2C1 | > 50 µg/mL | 107 µM | > 50 µg/mL |
| COC(=O)Nc1nc2ccccc2[nH]1 [CARBENDAZIM] | 4.09 µM | 4.09 µM | 8.18 µM |
| CC1(C)CC[C@]2(C)CC[C@]3(C)[C@H]4CC=C5C(=Cc6nc7ccccc7nc6C5(C)C)[C@]4(C)CC[C@@]3(C)[C@@H]2C1 | > 50 µg/mL | 98.2 µM | > 50 µg/mL |
| CC1(C)CC[C@]2(C)CC[C@]3(C)[C@H]4CC=C5[C@@H](Cc6c([nH]c7ccccc67)C5(C)C)[C@]4(C)CC[C@@]3(C)[C@@H]2C1 | > 50 µg/mL | > 50 µg/mL | > 50 µg/mL |
| CC1(C)CC[C@]2(C)CC[C@]3(C)[C@@H](CC=O)[C@](C)([C@@H]4CC[C@H](O)C(C)(C)C4=O)CC[C@@]3(C)[C@@H]2C1 | 109 µM | 109 µM | 54.5 µM |
| CC1(C)CC[C@]2(C)CC[C@]3(C)[C@H]4CC=C5C(=Cc6n[nH]c(=S)nc6C5(C)C)[C@]4(C)CC[C@@]3(C)[C@@H]2C1 | 25.4 µM | 102 µM | 50.8 µM |
| CC1(C)CC[C@]2(C)CC[C@]3(C)c4ccc5c(c4CC[C@@]3(C)[C@@H]2C1)C=CC(=O)C5(C)C | > 50 µg/mL | 123 µM | 123 µM |
| CC1(C)CC[C@]2(C)CC[C@]3(C)[C@H]4CC=C5[C@@H](CCC(=O)C5(C)C)[C@]4(C)CC[C@@]3(C)[C@@H]2C1 [GLUTINONE] | > 50 µg/mL | 118 µM | 118 µM |
| CC1(C)CC[C@]2(C)CC[C@]3(C)[C@H]4CC=C5[C@@H](CC(Br)(Br)C(=O)C5(C)C)[C@]4(C)CC[C@@]3(C)[C@@H]2C1 | > 50 µg/mL | 85.9 µM | > 50 µg/mL |
| Cc1cc2c(c(C)c1O)CC[C@H]1[C@@]2(C)CC[C@@]2(C)[C@@H]3CC(C)(C)CC[C@]3(C)CC[C@]12C | > 50 µg/mL | 118 µM | > 50 µg/mL |
| CC1(C)CC[C@]2(C)CC[C@]3(C)c4ccc5c(c4CC[C@@]3(C)[C@@H]2C1)C=C(Br)C(=O)C5(C)C | > 50 µg/mL | 51.7 µM | 51.7 µM |
| CC1(C)CC[C@]2(C)CC[C@]3(C)[C@H]4CC=C5C(C)(C)C(=O)CC[C@@]5(O)[C@]4(C)CC[C@@]3(C)[C@@H]2C1 | 56.7 µM | 113 µM | > 50 µg/mL |
| CC1(C)CC[C@]2(C)CC[C@]3(C)[C@H]4CC=C5C(=CC(=O)C(=O)C5(C)C)[C@]4(C)CC[C@@]3(C)[C@@H]2C1 | 114 µM | > 50 µg/mL | > 50 µg/mL |
| CC1(C)CC[C@]2(C)CC[C@]3(C)[C@H]4CC=C5[C@@H](CC(Br)C(=O)C5(C)C)[C@]4(C)CC[C@@]3(C)[C@@H]2C1 (stereo partly drawn) | > 50 µg/mL | > 50 µg/mL | > 50 µg/mL |
| CC1(C)CC[C@]2(C)CC[C@]3(C)[C@H]4C=CC5=C(C=C(Br)C(=O)C5(C)C)[C@]4(C)CC[C@@]3(C)[C@@H]2C1 | > 50 µg/mL | 100 µM | > 50 µg/mL |
| CC1(C)CC[C@]2(C)CC[C@]3(C)[C@H]4CC=C5[C@@H](Cc6cnn(-c7nc8ccccc8s7)c6C5(C)C)[C@]4(C)CC[C@@]3(C)[C@@H]2C1 | 43 µM | 85.9 µM | 85.9 µM |
| CC(=O)O[C@H]1CC[C@@H]([C@]2(C)CC[C@@]3(C)[C@@H]4CC(C)(C)CC[C@]4(C)CC[C@]3(C)[C@H]2CC=O)C(=O)C1(C)C | 49.9 µM | 49.9 µM | 99.8 µM |
| CC1(C)CC[C@]2(C)CC[C@]3(C)[C@H]4CC=C5C(=CCC(=O)C5(C)C)[C@]4(C)CC[C@@]3(C)[C@@H]2C1 | > 50 µg/mL | > 50 µg/mL | 118 µM |
